Values joined by “and” are separate entries in the source; they are usually repeats but may differ in a detail not shown here. Equal values may be shown once. Numbers after ± are expanded uncertainties.

The text below walks through data of the NIST ThermoML archive (doi:10.1016/j.jct.2013.08.019).

The conditions of data set [1]: DTA; for Triple point temperature: Crystal 2.
Data set [2] in a line: Molar enthalpy of transition or fusion. To be noted: DSC.

As for `OCCCCCCO` [1,6-hexanediol], in data set [1] (Crystal), the Normal melting temperature amounted to 41.6 ± 0.6 °C. Moreover, in data set [2] (Crystal), the “Molar enthalpy of transition or fusion” value is 6.31 ± 0.143 kcal/mol.
As to `OCCCCCCCO` [1,7-heptanediol], in data set [1] (Crystal), the Normal melting temperature was 17.4 ± 4 °C. Further, the “Molar enthalpy of transition or fusion” value in data set [2] (Crystal) was found to be 6.29 ± 0.215 kcal/mol.
The corresponding values for `OCCCCCCCCO` [1,8-octanediol] are 58.5 ± 0.6 °C and 8.68 ± 0.191 kcal/mol.
As for `OCCCCCCCCCO` [1,9-nonanediol], the Normal melting temperature in data set [1] (Crystal) stood at 45.6 ± 0.6 °C. Besides, the “Molar enthalpy of transition or fusion” value in data set [2] (Crystal) was found to be 8.77 ± 0.191 kcal/mol.
Consider `OCCCCCCCCCCO` [1,10-decanediol], for which the Normal melting temperature in data set [1] (Crystal) came out at 72.7 ± 0.7 °C. For the same compound, in data set [2] (Crystal), the “Molar enthalpy of transition or fusion” value amounted to 10.8 ± 0.239 kcal/mol.
The corresponding values for `OCCCCCCCCCCCO` [1,11-undecanediol] are 61.0 ± 0.6 °C and 11 ± 0.239 kcal/mol.
In the same order, the values of `OCCCCCCCCCCCCO` [1,12-dihydroxydodecane] are 79.8 ± 0.7 °C and 13 ± 0.263 kcal/mol.
For `OCCCCCCCCCCCCCO` [1,13-tridecanediol], in data set [1] (Crystal 1), the Normal melting temperature worked out at 77.2 ± 0.7 °C. Also, the Triple point temperature in data set [1] is given as 339.3 ± 0.7 K. Moreover, the “Molar enthalpy of transition or fusion” value in data set [2] (Crystal 2) was found to be 13.1 ± 0.287 kcal/mol.
With `OCCCCCCCCCCCCCCO` [1,14-tetradecanediol], the Normal melting temperature in data set [1] (Crystal) was 86.1 ± 0.7 °C. Also, the “Molar enthalpy of transition or fusion” value in data set [2] (Crystal) turned out to be 15.2 ± 0.311 kcal/mol.
On to `OCCCCCCCCCCCCCCCO` [1,15-pentadecanediol], for which the Normal melting temperature in data set [1] (Crystal 1) was 88.1 ± 0.7 °C. Besides, the Triple point temperature in data set [1] is 349 ± 0.7 K. Moreover, in data set [2] (Crystal 2), the “Molar enthalpy of transition or fusion” value is 15.6 kcal/mol and 9.15 kcal/mol.
In the case of `OCCCCCCCCCCCCCCCCO` [1,16-dihydroxyhexadecane], in data set [1] (Crystal 1), the Normal melting temperature came to 93 ± 0.7 °C. Further, the Triple point temperature in data set [1] is given as 364.1 ± 0.7 K. For the same compound, the “Molar enthalpy of transition or fusion” value in data set [2] (Crystal 2) came to 17.4 ± 0.359 kcal/mol.
